Source: patent US20230081426A1, “COMPOUNDS AND METHODS FOR KRAS MODULATION AND INDICATIONS THEREFOR” (Plexxikon Inc., priority 2020, published 2023)

Columns and labels:
[1] = molecular target: T1, G12D-mutant human KRAS (amino acid residues 1-188) (Homo sapiens, UniProt P01116, G12D); assay: KRAS Binding Disruption Assay (AlphaScreen; biotinylated KRpep-2d analogue or RAF1-RBD), G12D; details: KRAS G12D; geometric mean; read-out: KRAS GMean IC50 (uM) MUTATION: G12D
T1 construct: G12D or G12C-mutant human KRAS (amino acid residues 1-188) with FLAG tag; made in house; host or cells: E. coli
Procedure, shortened: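 Displacement format with mutant KRAS, biotinylated KRpep-2d analogue or RAF1-RBD (5-20 nM each) at pH 7.5 with 5 mM MgCl2.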

[2] = molecular target: T2, G12V-mutant human KRAS (amino acid residues 1-188) (Homo sapiens, UniProt P01116, G12V); assay: KRAS Binding Competition Assay (AlphaScreen; biotinylated KRpep-2d analogue), G12V; details: geometric mean, read-out: KRAS GMean IC50 (uM) MUTATION: G12V
T2 construct: G12V-mutant human KRAS (amino acid residues 1-188) with FLAG tag was purified from E. coli; made in house; host or cells: E. coli

Q: Which IC50 [1] does the source give for `CN1CCc2ccc(Oc3nc(N4[C@@H]5CC[C@H]4CNC5)c4ccc(-c5cc(O)cc6ccccc56)cc4n3)cc2C1` [P-0237, 4-(4-((1R,5S)-3,8-diazabicyclo[3.2.1]octan-8-yl)-2-((2-methyl-1,2,3,4-tetrahydroisoquinolin-7-yl)oxy)quinazolin-7-yl)naphthalen-2-ol] here?
A: Its IC50 is 10 to 100 µM.

Q: What about the IC50 [2] of the same compound?
A: The IC50 was 10 to 100 µM.

Q: Which results are given for `CN1CCc2cc(Oc3nc(N4[C@@H]5CC[C@H]4CNC5)c4ccc(-c5cc(O)cc6ccccc56)cc4n3)ccc2C1` [P-0238, 4-(4-((1R,5S)-3,8-diazabicyclo[3.2.1]octan-8-yl)-2-((2-methyl-1,2,3,4-tetrahydroisoquinolin-6-yl)oxy)quinazolin-7-yl)naphthalen-2-ol]?
A: IC50 [1]: 0.0001 to 10 µM; IC50 [2]: 0.0001 to 10 µM

Q: `CN1CCCC(Oc2nc(N3[C@@H]4CC[C@H]3CNC4)c3ccc(-c4cc(O)cc5ccccc45)cc3n2)C1` (stereo partly drawn) [P-0239, 4-(4-((1R,5S)-3,8-diazabicyclo[3.2.1]octan-8-yl)-2-((1-methylpiperidin-3-yl)oxy)quinazolin-7-yl)naphthalen-2-ol] was tested. Which IC50 [1] did it give?
A: Its IC50 is 0.0001 to 10 µM.

Q: And the IC50 [2]?
A: Its IC50 is 0.0001 to 10 µM.

Q: For `Oc1cc(-c2ccc3c(N4[C@@H]5CC[C@H]4CNC5)nc(Cc4cccnc4)nc3c2)c2ccccc2c1` [P-0240, 4-(4-((1R,5S)-3,8-diazabicyclo[3.2.1]octan-8-yl)-2-(pyridin-3-ylmethyl)quinazolin-7-yl)naphthalen-2-ol], which IC50 [1] is on record?
A: Its IC50 is 0.0001 to 10 µM.

Q: What about the IC50 [2] of the same compound?
A: The IC50 was 0.0001 to 10 µM.

Q: Which IC50 [1] does the source give for `Oc1cc(-c2ccc3c(N4[C@@H]5CC[C@H]4CNC5)nc(CCc4cccnc4)nc3c2)c2ccccc2c1` [P-0241, 4-(4-((1R,5S)-3,8-diazabicyclo[3.2.1]octan-8-yl)-2-(2-(pyridin-3-yl)ethyl)quinazolin-7-yl)naphthalen-2-ol] here?
A: Its IC50 is 0.0001 to 10 µM.

Q: And the IC50 [2]?
A: The IC50 was 0.0001 to 10 µM.

Q: What does the source list for `CN(C)c1ccc(CCc2nc(N3C[C@H]4CC[C@@H](C3)N4)c3ccc(-c4cc(O)cc5ccccc45)cc3n2)cc1` [P-0242, 4-(4-((1R,5S)-3,8-diazabicyclo[3.2.1]octan-3-yl)-2-(4-(dimethylamino)phenethyl)quinazo-lin-7-yl)naphthalen-2-ol]?
A: IC50 [1]: 0.0001 to 10 µM; IC50 [2]: 0.0001 to 10 µM

Q: Which results are given for `Nc1ccc(CCc2nc(N3[C@@H]4CC[C@H]3CNC4)c3ccc(-c4cc(O)cc5ccccc45)cc3n2)cc1` [P-0243, 4-(2-(4-aminophenethyl)-4-((1R,5S)-3,8-diazabicyclo[3.2.1]octan-8-yl)quinazolin-7-yl)naphthalen-2-ol]?
A: IC50 [1]: 0.0001 to 10 µM; IC50 [2]: 0.0001 to 10 µM

Q: `CN(C)c1ccc(/C=C/c2nc(N3[C@@H]4CC[C@H]3CNC4)c3ccc(-c4cc(O)cc5ccccc45)cc3n2)cc1` [P-0244, 4-(4-((1R,5S)-3,8-diazabicyclo[3.2.1]octan-8-yl)-2-((E)-4-(dimethylamino)styryl)quinazolin-7-yl)naphthalen-2-ol] was tested. Which IC50 [1] did it give?
A: Its IC50 is 10 to 100 µM.

Q: What about the IC50 [2] of the same compound?
A: The IC50 was 10 to 100 µM.

Q: What does the source list for `C[C@@H](Oc1nc(N2C[C@H]3CC[C@@H](C2)N3)c2ccc(-c3cc(O)cc4ccccc34)cc2n1)[C@@H]1CCCN1C` [P-0245, 4-(4-((1R,5S)-3,8-diazabicyclo[3.2.1]octan-3-yl)-2-((R)-1-((S)-1-methylpyrrolidin-2-yl)ethoxy)quinazolin-7-yl)naphthalen-2-ol]?
A: IC50 [1]: 0.0001 to 10 µM; IC50 [2]: 0.0001 to 10 µM

Q: How did the IC50 [1] turn out when `CN1CC[C@@H](NC(=O)N2[C@H]3CC[C@@H]2CN(c2nc(OC[C@@H]4CCCN4C)nc4c(F)c(-c5cc(O)cc6ccccc56)ccc24)CC3)C1` [P-0246, (1R,6S)-3-(8-fluoro-7-(3-hydroxynaphthalen-1-yl)-2-(((S)-1-methylpyrrolidin-2-yl)methoxy)quinazolin-4-yl)-N-((R)-1-methylpyrrolidin-3-yl)-3,9-diazabicyclo[4.2.1]nonane-9-carboxamide] was run?
A: The IC50 was 0.0001 to 10 µM.

Q: And the IC50 [2]?
A: Its IC50 is 10 to 100 µM.

Q: For `CN1CCN(CCCC(=O)N2C3CCC2CN(c2nc(OC[C@@H]4CCCN4C)nc4c(F)c(-c5cc(O)cc6ccccc56)ccc24)CC3)CC1` (stereo partly drawn) [P-0247, 1-(3-(8-fluoro-7-(3-hydroxynaphthalen-1-yl)-2-(((S)-1-methylpyrrolidin-2-yl)methoxy)quinazolin-4-yl)-3,9-diazabicyclo[4.2.1]nonan-9-yl)-4-(4-methylpiperazin-1-yl)butan-1-one], which IC50 [1] is on record?
A: The IC50 was 10 to 100 µM.

Q: And the IC50 [2]?
A: The IC50 was 10 to 100 µM.

Q: With `CN1CCC[C@H]1COc1nc(N2CC[C@@H]3CC[C@H](C2)N3C(=O)NC2CCOC2)c2ccc(-c3cc(O)cc4ccccc34)c(F)c2n1` (stereo partly drawn) [P-0248, (1R,6 S)-3-(8-fluoro-7-(3-hydroxynaphthalen-1-yl)-2-(((S)-1-methylpyrrolidin-2-yl)methoxy)quinazolin-4-yl)-N-(tetrahydrofuran-3-yl)-3,9-diazabicyclo[4.2.1]nonane-9-carboxamide] as the compound, how does the IC50 [1] read?
A: The IC50 was 10 to 100 µM.

Q: And the IC50 [2]?
A: Its IC50 is 0.0001 to 10 µM.

Q: For `CN1CC[C@@H](NC(=O)N2C3COCC2CN(c2nc(OC[C@@H]4CCCN4C)nc4c(F)c(-c5cc(O)cc6ccccc56)ccc24)C3)C1` [P-0250, 7-(8-fluoro-7-(3-hydroxynaphthalen-1-yl)-2-(((S)-1-methylpyrrolidin-2-yl)methoxy)quinazolin-4-yl)-N-((R)-1-methylpyrrolidin-3-yl)-3-oxa-7,9-diazabicyclo[3.3.1]nonane-9-carboxamide], which IC50 [1] is on record?
A: The IC50 was 0.0001 to 10 µM.

Q: What about the IC50 [2] of the same compound?
A: The IC50 was 0.0001 to 10 µM.

Q: How did the IC50 [1] turn out when `CN1CCN(CCCC(=O)N2C3COCC2CN(c2nc(OC[C@@H]4CCCN4C)nc4c(F)c(-c5cc(O)cc6ccccc56)ccc24)C3)CC1` [P-0252, 1-(7-(8-fluoro-7-(3-hydroxynaphthalen-1-yl)-2-(((S)-1-methylpyrrolidin-2-yl)methoxy)quinazolin-4-yl)-3-oxa-7,9-diazabicyclo[3.3.1]nonan-9-yl)-4-(4-methylpiperazin-1-yl)butan-1-one] was run?
A: Its IC50 is 10 to 100 µM.

Q: And the IC50 [2]?
A: The IC50 was 10 to 100 µM.

Q: Which results are given for `CN1CCC[C@H]1COc1nc(N2C[C@H]3CC[C@@H](C2)N3)c2ccc(-c3c[nH]c4ccc(Cl)cc34)cc2n1` [P-0253, 4-((1R,5S)-3,8-diazabicyclo[3.2.1]octan-3-yl)-7-(5-chloro-1H-indol-3-yl)-2-(((S)-1-methylpyrrolidin-2-yl)methoxy)quinazoline]?
A: IC50 [1]: 10 to 100 µM; IC50 [2]: 100 to 1000 µM

Q: With `CN1CCC[C@H]1COc1nc(N2C[C@H]3CC[C@@H](C2)N3)c2ccc(-c3c[nH]c4ccccc34)cc2n1` [P-0254, 4-((1R,5S)-3,8-diazabicyclo[3.2.1]octan-3-yl)-7-(1H-indol-3-yl)-2-(((S)-1-methylpyrrolidin-2-yl)methoxy)quinazoline] as the compound, how does the IC50 [1] read?
A: The IC50 was 10 to 100 µM.

Q: What about the IC50 [2] of the same compound?
A: Its IC50 is 10 to 100 µM.

Q: `CN1CCC[C@H]1COc1nc(N2C[C@H]3CC[C@@H](C2)N3)c2ccc(-c3c[nH]c4cccc(Cl)c34)cc2n1` [P-0255, 4-((1R,5S)-3,8-diazabicyclo[3.2.1]octan-3-yl)-7-(4-chloro-1H-indol-3-yl)-2-(((S)-1-methylpyrrolidin-2-yl)methoxy)quinazoline] was tested. Which IC50 [1] did it give?
A: Its IC50 is 10 to 100 µM.

Q: What about the IC50 [2] of the same compound?
A: Its IC50 is 10 to 100 µM.

Q: With `CN1CCC[C@H]1COc1nc(N2[C@@H]3CC[C@H]2CNC3)c2ccc(-c3cccc4ccccc34)cc2n1` [P-0257, 4-((1R,5S)-3,8-diazabicyclo[3.2.1]octan-8-yl)-2-(((S)-1-methylpyrrolidin-2-yl)methoxy)-7-(naphthalen-1-yl)quinazoline] as the compound, how does the IC50 [1] read?
A: Its IC50 is 10 to 100 µM.

Q: And the IC50 [2]?
A: Its IC50 is 10 to 100 µM.

Q: `CN1CCC[C@H]1COc1nc(N2[C@@H]3CC[C@H]2CNC3)c2ccc(-c3ccc4ccccc4c3)cc2n1` [P-0258, 4-((1R,5S)-3,8-diazabicyclo[3.2.1]octan-8-yl)-2-(((S)-1-methylpyrrolidin-2-yl)methoxy)-7-(naphthalen-2-yl)quinazoline] was tested. Which IC50 [1] did it give?
A: The IC50 was 10 to 100 µM.

Q: And the IC50 [2]?
A: Its IC50 is 10 to 100 µM.

Q: What does the source list for `CN1CCC[C@H]1COc1nc(N2[C@@H]3CC[C@H]2CNC3)c2ccc(-c3c(O)ccc4ccccc34)cc2n1` [P-0259, 1-(4-((1R,5S)-3,8-diazabicyclo[3.2.1]octan-8-yl)-2-(((S)-1-methylpyrrolidin-2-yl)methoxy)quinazolin-7-yl)naphthalen-2-ol]?
A: IC50 [1]: 0.0001 to 10 µM; IC50 [2]: 10 to 100 µM

Q: For `CN1CCC[C@H]1COc1nc(N2[C@@H]3CC[C@H]2CNC3)c2ccc(-c3cncc(Br)c3Cl)cc2n1` [P-0260, 4-((1R,5S)-3,8-diazabicyclo[3.2.1]octan-8-yl)-7-(5-bromo-4-chloropyridin-3-yl)-2-(((S)-1-methylpyrrolidin-2-yl)methoxy)quinazoline], which IC50 [1] is on record?
A: The IC50 was 10 to 100 µM.

Q: What about the IC50 [2] of the same compound?
A: Its IC50 is 10 to 100 µM.

Q: With `Cc1ccnc(-c2ccc3c(N4[C@@H]5CC[C@H]4CNC5)nc(OC[C@@H]4CCCN4C)nc3c2)c1C` [P-0261, 4-((1R,5S)-3,8-diazabicyclo[3.2.1]octan-8-yl)-7-(3,4-dimethylpyridin-2-yl)-2-(((S)-1-methylpyrrolidin-2-yl)methoxy)quinazoline] as the compound, how does the IC50 [1] read?
A: Its IC50 is 100 to 1000 µM.

Q: What about the IC50 [2] of the same compound?
A: Its IC50 is 100 to 1000 µM.

Q: What does the source list for `CN1CCC[C@H]1COc1nc(N2[C@@H]3CC[C@H]2CNC3)c2ccc(-c3cc(O)cc4cccnc34)cc2n1` [P-0262, 8-(4-((1R,5S)-3,8-diazabicyclo[3.2.1]octan-8-yl)-2-(((S)-1-methylpyrrolidin-2-yl)methoxy)quinazolin-7-yl)quinolin-6-ol]?
A: IC50 [1]: 10 to 100 µM; IC50 [2]: 10 to 100 µM

Q: With `CN1CCC[C@H]1COc1nc(N2[C@@H]3CC[C@H]2CNC3)c2ccc(-c3cc([N+](=O)[O-])cc4ccccc34)cc2n1` [P-0263, 4-((1R,5S)-3,8-diazabicyclo[3.2.1]octan-8-yl)-2-(((S)-1-methylpyrrolidin-2-yl)methoxy)-7-(3-nitronaphthalen-1-yl)quinazoline] as the compound, how does the IC50 [1] read?
A: Its IC50 is 10 to 100 µM.

Q: And the IC50 [2]?
A: Its IC50 is 10 to 100 µM.

Q: Which IC50 [1] does the source give for `CN1CCC[C@H]1COc1nc(N2[C@@H]3CC[C@H]2CNC3)c2ccc(-c3c(Cl)cccc3Cl)cc2n1` [P-0264, 4-((1R,5S)-3,8-diazabicyclo[3.2.1]octan-8-yl)-7-(2,6-dichlorophenyl)-2-(((S)-1-methylpyrrolidin-2-yl)methoxy)quinazoline] here?
A: The IC50 was 10 to 100 µM.

Q: And the IC50 [2]?
A: Its IC50 is 10 to 100 µM.
